Source: ChEMBL document CHEMBL1157827, “The synthesis and biological evaluation of quinolyl-piperazinyl piperidines as potent serotonin 5-HT1A antagonists” (J Med Chem, 2010)
Active and inactive are the calls of the source. The calls are words filed in the database; no cut-off is given here.

Legend:
Rattus norvegicus [1] = test: Cognitive enhancing effect in po dosed Long-Evans rat assessed as reversal of 48 hrs delay-induced cognitive deficit at 0.1 mg/kg, po measured after 1 hr by novel object recognition test in presence of 0.5 mg/kg acetylcholinesterase inhibitor donepazil; assay type: functional, organism-based
Rattus norvegicus [2] = test: Cognitive enhancing effect in Long-Evans rat assessed as decrease in mean escape latency at 3 to 10 mg/kg, po by atlantis water maze test; assay type: functional, organism-based
Rattus norvegicus [3] = test: Cognitive enhancing effect in Long-Evans rat assessed as increase in dwell time within trigger zone during acquisition training at 3 mg/kg, po by atlantis water maze test; assay type: functional, organism-based; design: dose 3 mg/kg
Rattus norvegicus [4] = test: Cognitive enhancing effect in Long-Evans rat assessed as increase in dwell time within trigger zone during acquisition training at 10 mg/kg, po by atlantis water maze test; assay type: functional, organism-based; design: dose 10 mg/kg
Rattus norvegicus [5] = test: Cognitive enhancing effect in Long-Evans rat assessed as effect on swim speed during acquisition training at 3 to 10 mg/kg, po by atlantis water maze test; assay type: functional, organism-based
Mus musculus = test: Cognitive enhancing effect in po dosed transgenic 2576 mouse overexpressing human APP K670N/M671L double mutant assessed as minimal effective dose for enhancement of contextual memory measured after 1 hr by contextual fear conditioning assay; assay type: functional; settings: read-out: MED
Rattus norvegicus [6] = test: Increase in fluoxetine-induced increase in serotonin level in Sprague-Dawley rat frontal cortex at 10 mg/kg, po administered 30 mins before fluoxetine challenge measured after 20 mins by microdialysis assay relative to basal level; assay type: functional
Rattus norvegicus [7] = test: Effect on obsessive compulsive behavior in Sprague-Dawley rat assessed as inhibition of polydipsia stimulated by food intake of a schedule of every 2 minutes for 2 hrs at 5.6 mg/kg, ip after 30 mins; assay type: functional, organism-based; design: dose 5.6 mg/kg
Rattus norvegicus [8] = test: Effect on obsessive compulsive behavior in Sprague-Dawley rat assessed as inhibition of polydipsia stimulated by food intake of a schedule of every 2 minutes for 2 hrs at 10 mg/kg, po after 30 mins; assay type: functional, organism-based; design: dose 10 mg/kg
Rattus norvegicus [9] = test: Effect on obsessive compulsive behavior in po dosed Sprague-Dawley rat assessed as enhancement of fluoxetine-induced inhibition of polydipsia stimulated by food intake of a schedule of every 2 minutes for 2 hrs administered 30 mins before fluoxetine challenge measured after 30 mins; assay type: functional, organism-based
Rattus norvegicus [10] = test: Enhancement of fluoxetine-induced inhibition of polydipsia stimulated by food intake of a schedule of every 2 minutes for 2 hrs in Sprague-Dawley rat assessed as minimal effective dose administered 30 mins before fluoxetine challenge measured after 30 mins; assay type: functional; settings: read-out: MED
Rattus norvegicus [11] = test: Antidepressant activity in Sprague-Dawley rat assessed as inhibition of olfactory bulbectomy-induced hyperlocomotor activity at 5.6 mg/kg, ip QD fro 7 days measured after 14 days post-surgery; assay type: functional, organism-based; design: dose 5.6 mg/kg
Rattus norvegicus [12] = test: Enhancement of fluoxetine-induced inhibition of olfactory bulbectomy-mediated hyperlocomotor activity in Sprague-Dawley rat at 10 mg/kg, po coadministered with fluoxetine QD for 7 days measured after 14 days post-surgery; assay type: functional, organism-based; design: dose 10 mg/kg
Rattus norvegicus [13] = test: Induction of sexual dysfunction in Sprague-Dawley rat assessed as decrease in noncontact penile erection at 10 mg/kg, ip QD for 14 days measured after day 14; assay type: organism-based; design: dose 10 mg/kg, route intraperitoneal; scale not given: the % may be the effect or the level left; settings: in vivo, 336 h
Rattus norvegicus [14] = test: Inhibition of fluoxetine-induced decrease in noncontact penile erection in Sprague-Dawley rat at 10 mg/kg, po coadministered with fluoxetine QD for 14 days measured after day 14; assay type: functional, organism-based; design: dose 10 mg/kg
Rattus norvegicus [15] = test: Inhibition of fluoxetine-induced decrease in noncontact penile erection in Sprague-Dawley rat at 10 mg/kg, po coadministered with fluoxetine; assay type: functional, organism-based; design: dose 10 mg/kg
Rattus norvegicus [16] = test: Effect of noncontact penile erection in Sprague-Dawley rat at 10 mg/kg, po QD for 14 days measured after day 14; assay type: functional, organism-based; design: dose 10 mg/kg
Rattus norvegicus [17] = test: Effect of noncontact penile erection in Sprague-Dawley rat at 10 mg/kg, po; assay type: functional, organism-based; design: dose 10 mg/kg
[18] = Volume of distribution at steady state in Sprague-Dawley rat at 1 mg/kg, iv administered as single dose by LC/MS/MS analysis; assay type: ADME, organism-based; design: dose 1 mg/kg, route intravenous; settings: in vivo, read-out: Vdss
[19] = Cmax in Sprague-Dawley rat at 3 mg/kg, po administered as single dose by LC/MS/MS analysis; assay type: ADME, organism-based; design: dose 3 mg/kg, route oral; settings: in vivo
[20] = Tmax in Sprague-Dawley rat at 3 mg/kg, po administered as single dose by LC/MS/MS analysis; assay type: ADME, organism-based; design: dose 3 mg/kg, route oral; settings: in vivo
[21] = Half life in Sprague-Dawley rat at 3 mg/kg, po administered as single dose by LC/MS/MS analysis; assay type: ADME, organism-based; design: dose 3 mg/kg, route oral; settings: in vivo
Rattus norvegicus [22] = test: AUC in Sprague-Dawley rat at 3 mg/kg, po administered as single dose by LC/MS/MS analysis; assay type: ADME, organism-based, Plasma; design: dose 3 mg/kg, route oral; settings: in vivo
Rattus norvegicus [23] = test: Oral bioavailability in Sprague-Dawley rat at 3 mg/kg administered as single dose by LC/MS/MS analysis; assay type: ADME, organism-based; settings: in vivo
[24] = Ratio of drug level in brain to plasma in Sprague-Dawley rat at 3 mg/kg, po administered as single dose; assay type: ADME, organism-based; design: dose 3 mg/kg, route oral; settings: read-out: BPR
Rattus norvegicus [25] = test: Effect on serotonin release in Sprague-Dawley rat cortex at 10 mg/kg, po after 40 mins microdialysis assay; assay type: functional, organism-based; design: dose 10 mg/kg
Rattus norvegicus [26] = test: Inhibition of 8-OH-DPAT-induced decrease in extracellular serotonin level Sprague-Dawley rat cortex at 10 mg/kg, po administered 30 mins before 8-OH-DPAT challenge; assay type: functional, organism-based; design: dose 10 mg/kg
Rattus norvegicus [27] = test: Increase in acetylcholine level in Sprague-Dawley rat dorsal hippocampus at 10 mg/kg, po after 40 to 200 mins microdialysis assay; assay type: functional, organism-based; design: dose 10 mg/kg
Rattus norvegicus [28] = test: Cognitive enhancing effect in po dosed Long-Evans rat assessed as minimal effective dose for reversal of 48 hrs delay-induced cognitive deficit measured after 1 hr by novel object recognition test; assay type: functional; settings: read-out: MED
Rattus norvegicus [29] = test: In vivo receptor occupancy of 5HT1A receptor Long-Evans rat frontal cortex at 0.1 to 10 mg/kg, po by [3H]WAY100635 displacement assay; assay type: functional; settings: dose mg/kg 0.1-10
Rattus norvegicus [30] = test: In vivo receptor occupancy of 5HT1A receptor Long-Evans rat […] hippocampus at 0.1 to 10 mg/kg, po by [3H]WAY100635 displacement assay; assay type: functional; settings: dose mg/kg 0.1-10
Rattus norvegicus [31] = test: Cognitive enhancing effect in po dosed Long-Evans rat assessed as minimal effective dose for reversal of MK-801-induced memory deficit administered 30 mins prior to MK801 challenge measured after 1 hr by novel object recognition test; assay type: functional; settings: read-out: MED
Rattus norvegicus [32] = test: Cognitive enhancing effect in po dosed Long-Evans rat assessed as minimal effective dose for reversal of scopolamine-induced memory deficit administered 30 mins prior to MK801 challenge measured after 1 hr by novel object recognition test; assay type: functional; settings: read-out: MED
[33] = target: T1, 5-hydroxytryptamine receptor 1A (Homo sapiens, UniProt P08908)
T1 sequence (P08908 whole entry): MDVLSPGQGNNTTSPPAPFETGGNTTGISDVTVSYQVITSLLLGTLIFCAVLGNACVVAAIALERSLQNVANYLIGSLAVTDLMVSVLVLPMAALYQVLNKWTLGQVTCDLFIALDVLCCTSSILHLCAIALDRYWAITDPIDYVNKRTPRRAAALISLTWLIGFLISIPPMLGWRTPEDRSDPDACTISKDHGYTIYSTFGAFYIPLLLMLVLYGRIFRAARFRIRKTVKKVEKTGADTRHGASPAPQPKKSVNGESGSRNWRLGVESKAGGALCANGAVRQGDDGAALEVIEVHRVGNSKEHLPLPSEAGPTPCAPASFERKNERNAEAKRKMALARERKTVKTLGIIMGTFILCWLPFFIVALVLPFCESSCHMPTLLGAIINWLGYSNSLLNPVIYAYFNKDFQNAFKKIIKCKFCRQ

[34] = target: T1, 5-hydroxytryptamine receptor 1A; settings: cho
Description: Displacement of [3H]8-OH-DPAT from human 5HT1A receptor expressed in CHO cells

in vitro [35] = settings: rat, liver microsomes
Description: Half life in rat liver microsomes at 1 uM after 20 mins

in vitro [36] = settings: human, liver microsomes
Description: Half life in human liver microsomes at 1 uM after 20 mins

COc1cc(N2CCN(C3CCN(c4ccc(F)c5cccnc45)CC3)CC2)c2ncccc2c1
Activity (Rattus norvegicus [1]): Active | Activity (Rattus norvegicus [2]): Active | Activity (Rattus norvegicus [3]): inactive | Activity (Rattus norvegicus [4]): Active | Activity (Rattus norvegicus [5]): inactive | minimal effective dose (Mus musculus): 0.3 mg/kg | Activity (Rattus norvegicus [6]): 120% | Activity (Rattus norvegicus [7]): inactive | Activity (Rattus norvegicus [8]): inactive | Activity (Rattus norvegicus [9]): Dose-dependent effect | minimal effective dose (Rattus norvegicus [10]): 3 mg/kg | Activity (Rattus norvegicus [11]): inactive | Activity (Rattus norvegicus [12]): Active | Activity (Rattus norvegicus [13]): 54% | Activity (Rattus norvegicus [14]): Active | Activity (Rattus norvegicus [15]): Active | Activity (Rattus norvegicus [16]): inactive | Activity (Rattus norvegicus [17]): inactive | Vd [18]: 2.6 L/kg | Cmax [19]: 247 ng/mL | Tmax [20]: 48 min | half-life [21]: 66 min | AUC (Rattus norvegicus [22]): 472 ng·h/mL | F (Rattus norvegicus [23]): 33% | Kp [24]: 1.3 | Activity (Rattus norvegicus [25]): inactive | Activity (Rattus norvegicus [26]): Active | Activity (Rattus norvegicus [27]): Active | minimal effective dose (Rattus norvegicus [28]): 0.3 mg/kg | Activity (Rattus norvegicus [29]): 20% | Activity (Rattus norvegicus [30]): 20% | minimal effective dose (Rattus norvegicus [31]): 1 mg/kg | minimal effective dose (Rattus norvegicus [32]): 0.3 mg/kg | IC50 [33]: 2.7 nM | Ki [34]: 0.4 nM | half-life at 20 min, 1 µM (in vitro [35]): 2 min | half-life at 20 min, 1 µM (in vitro [36]): 6 min
